We go through 2 molecules from article PMC9327644, “Optimized peptide extraction method for analysis of antimicrobial peptide Kn2-7/dKn2-7 stability in human serum by LC–MS” (Future Science OA, 2022).

Square brackets hold non-standard residues; d marks the D form. Peptide text beside a SMILES is read from it.

The data set in a line: Time-course stability in 25% human serum by LC-MS. The note with it: 25% human serum in RPMI media (165 mM MOPS, pH 7.0), 50 μg/ml peptide, 37°C water bath, precipitation with 1% formic acid in ethanol, LC-MS/MS (MRM), internal standard AMP 1018, mean ± SD, n = 3. Format: in vitro ADME. The method, then: After parameters were optimized to reduce peptide loss during sample processing, the extent of AMP degradation by proteases in human serum was determined via a time-course experiment. Kn2-7 or dKn2-7 (50 μg/ml final concentration) was mixed with RPMI media alone or RPMI containing 25% human serum and incubated at 37°C in a water bath for up to 24 h. At predetermined time points (t = 0, 0.5, 1, 2, 3, 4 and 24 h), a 200 μl aliquot of each sample was collected and mixed with 400 μl of 1% formic acid in ethanol. Samples were incubated on ice for 15 min and centrifuged at 18,000 g for 10 min. Supernatants were transferred to fresh 500 μl tubes and stored at -20°C.
Samples were diluted eight-times with 3% ACN and 0.1% formic acid in water and spiked with internal standard AMP 1018 [15, 16] at 1 μg/ml immediately before LC–MS analysis. A 10 μl aliquot of each sample was analyzed using an Agilent ZORBAX Eclipse XDB 80Å C18 column (2.1 × 50 mm, 5 μm, Agilent, CA, USA) and a Shimadzu LC-20AD system (Shimadzu Corporation, Kyoto, Japan) coupled with a SCIEX API 4000 triple quadrupole mass spectrometer (AB Sciex, MA, USA). […]
MS was conducted in multiple reaction monitoring and positive electrospray ionization mode. […] AMPs Kn2-7/dKn2-7 and 1018 were quantified with the most abundant multiple reaction monitoring transitions m/z 558.7/120.2 and 385.18/239.1, respectively. […]

Turning to `CC[C@H](C)[C@H](NC(=O)[C@H](CCCNC(=N)N)NC(=O)[C@H](CCCCN)NC(=O)[C@@H](NC(=O)[C@@H](N)Cc1ccccc1)[C@@H](C)CC)C(=O)N[C@@H](C)C(=O)N[C@@H](CCCNC(=N)N)C(=O)N[C@@H](CC(C)C)C(=O)N[C@@H](CC(C)C)C(=O)N[C@@H](CCCNC(=N)N)C(=O)N[C@@H](CCCCN)C(=O)N[C@H](C(=O)N[C@@H](Cc1ccccc1)C(=O)O)[C@@H](C)CC` [Kn2-7] (H-FIKRIARLLRKIF-OH), the “peptide remaining at 24 h relative to the starting concentration (amount in 0 h sample)” value is given as 1.0% ± 0.4%.
On to `CC[C@@H](C)[C@@H](NC(=O)[C@H](N)Cc1ccccc1)C(=O)N[C@H](CCCCN)C(=O)N[C@H](CCCNC(=N)N)C(=O)N[C@@H](C(=O)N[C@H](C)C(=O)N[C@H](CCCNC(=N)N)C(=O)N[C@H](CC(C)C)C(=O)N[C@H](CC(C)C)C(=O)N[C@H](CCCNC(=N)N)C(=O)N[C@H](CCCCN)C(=O)N[C@@H](C(=O)N[C@H](Cc1ccccc1)C(=O)O)[C@H](C)CC)[C@H](C)CC` [dKn2-7] (H-[dF][dI][dK][dR][dI][dA][dR][dL][dL][dR][dK][dI][dF]-OH), for which the “peptide remaining at 24 h relative to the starting concentration (amount in 0 h sample)” value is on record as 78.5% ± 2.7%.
